Experimental data reported in publication PMC11005723, “Development of Complementary Photo‐arginine/lysine to Promote Discovery of Arg/Lys hPTMs Interactomes” (Advanced Science, 2024).

Test system: HEK293T nuclear lysates
Assay: SILAC‐based pull‐down proteomics H4K5me2/H4K5 (probes 7/5)
Assay type: binding, human
Conditions: for E6 log2 (H4K5me2/H4K5): run E6; for F6 log2 (H4K5me2/H4K5): run F6

probe 7: H4K5me2 peptide probe with photo‐arginine R(dz) and K(biotin) (SGRGKGGKGLGKGGK; photo-arginine R(dz) at 3; dimethyl-lysine at 5; K(biotin) at 15)
proteins recruited (SILAC proteomics H4K5me2/H4K5) (365 nm UV 30 min, streptavidin enrichment, n = 2): could recruit L3MBTL2 | E6 log2 (H4K5me2/H4K5) (protein A0A0U1RR22 PACSIN2): 0.1208 | F6 log2 (H4K5me2/H4K5) (protein A0A0U1RR22 PACSIN2): -0.1109 | E6 log2 (H4K5me2/H4K5) (protein A0A2R8Y855 SMARCE1): 0.07695 | F6 log2 (H4K5me2/H4K5) (protein A0A2R8Y855 SMARCE1): 0.03141 | E6 log2 (H4K5me2/H4K5) (protein A0A087WY61 NUMA1): 0.1401 | F6 log2 (H4K5me2/H4K5) (protein A0A087WY61 NUMA1): 0.3015 | E6 log2 (H4K5me2/H4K5) (protein A6NLN1 PTBP1): 0.07938 | F6 log2 (H4K5me2/H4K5) (protein A6NLN1 PTBP1): -0.02591 | E6 log2 (H4K5me2/H4K5) (protein B4DY09 ILF2): 0.08111 | F6 log2 (H4K5me2/H4K5) (protein B4DY09 ILF2): 0.1752 | E6 log2 (H4K5me2/H4K5) (protein B5MCF9 PES1): 0.1415 | F6 log2 (H4K5me2/H4K5) (protein B5MCF9 PES1): 0.1164 | E6 log2 (H4K5me2/H4K5) (protein E7ETZ4 BZW2): 0.1449 | F6 log2 (H4K5me2/H4K5) (protein E7ETZ4 BZW2): -0.03577 | E6 log2 (H4K5me2/H4K5) (protein E9PKG1 PRMT1): 0.1534 | F6 log2 (H4K5me2/H4K5) (protein E9PKG1 PRMT1): 0.23 | E6 log2 (H4K5me2/H4K5) (protein H7C3T4 PRDX4): 0.1102 | F6 log2 (H4K5me2/H4K5) (protein H7C3T4 PRDX4): 0.1589 | E6 log2 (H4K5me2/H4K5) (protein J3QR09 RPL19): 0.1467 | F6 log2 (H4K5me2/H4K5) (protein J3QR09 RPL19): -0.9956 | E6 log2 (H4K5me2/H4K5) (protein M0R3F6 SUGP2): 0.09539 | F6 log2 (H4K5me2/H4K5) (protein M0R3F6 SUGP2): 0.1115 | E6 log2 (H4K5me2/H4K5) (protein O00567 NOP56): 0.1426 | F6 log2 (H4K5me2/H4K5) (protein O00567 NOP56): -0.1862 | E6 log2 (H4K5me2/H4K5) (protein O14654 IRS4): 0.1705 | F6 log2 (H4K5me2/H4K5) (protein O14654 IRS4): -0.09217 | E6 log2 (H4K5me2/H4K5) (protein O14980 XPO1): 0.1332 | F6 log2 (H4K5me2/H4K5) (protein O14980 XPO1): 0.2789 | E6 log2 (H4K5me2/H4K5) (protein O43663 PRC1): 0.1243 | F6 log2 (H4K5me2/H4K5) (protein O43663 PRC1): 0.05206 | E6 log2 (H4K5me2/H4K5) (protein O43670 ZNF207): 0.07954 | F6 log2 (H4K5me2/H4K5) (protein O43670 ZNF207): 0.2082 | E6 log2 (H4K5me2/H4K5) (protein O60216 RAD21): 0.09859 | F6 log2 (H4K5me2/H4K5) (protein O60216 RAD21): -0.00427 | E6 log2 (H4K5me2/H4K5) (protein O60264 SMARCA5): 0.1187 | F6 log2 (H4K5me2/H4K5) (protein O60264 SMARCA5): 0.0006909 | E6 log2 (H4K5me2/H4K5) (protein O75717 WDHD1): 0.1724 | F6 log2 (H4K5me2/H4K5) (protein O75717 WDHD1): 0.09518 | E6 log2 (H4K5me2/H4K5) (protein O95218 ZRANB2): 0.07138 | F6 log2 (H4K5me2/H4K5) (protein O95218 ZRANB2): 0.02934 | E6 log2 (H4K5me2/H4K5) (protein O95239 KIF4A): 0.09061 | F6 log2 (H4K5me2/H4K5) (protein O95239 KIF4A): 0.09527 | E6 log2 (H4K5me2/H4K5) (protein P04843 RPN1): 0.0606 | F6 log2 (H4K5me2/H4K5) (protein P04843 RPN1): -0.2414 | E6 log2 (H4K5me2/H4K5) (protein P08107 HSPA1A): 0.1665 | F6 log2 (H4K5me2/H4K5) (protein P08107 HSPA1A): 0.1744 | E6 log2 (H4K5me2/H4K5) (protein P11387 TOP1): 0.0619 | F6 log2 (H4K5me2/H4K5) (protein P11387 TOP1): 0.02763 | E6 log2 (H4K5me2/H4K5) (protein P12081 HARS): 0.08516 | F6 log2 (H4K5me2/H4K5) (protein P12081 HARS): -0.01799 | E6 log2 (H4K5me2/H4K5) (protein P13010 XRCC5): 0.1114 | F6 log2 (H4K5me2/H4K5) (protein P13010 XRCC5): 0.1089 | E6 log2 (H4K5me2/H4K5) (protein P17028 ZNF24): 0.05262 | F6 log2 (H4K5me2/H4K5) (protein P17028 ZNF24): 0.1336 | E6 log2 (H4K5me2/H4K5) (protein P22314 UBA1): 0.1022 | F6 log2 (H4K5me2/H4K5) (protein P22314 UBA1): 0.2143 | E6 log2 (H4K5me2/H4K5) (protein P26358 DNMT1): 0.1405 | F6 log2 (H4K5me2/H4K5) (protein P26358 DNMT1): 0.2161 | E6 log2 (H4K5me2/H4K5) (protein P26641 EEF1G): 0.08126 | F6 log2 (H4K5me2/H4K5) (protein P26641 EEF1G): 0.1297 | E6 log2 (H4K5me2/H4K5) (protein P29692 EEF1D): 0.1014 | F6 log2 (H4K5me2/H4K5) (protein P29692 EEF1D): -0.2527 | E6 log2 (H4K5me2/H4K5) (protein P31689 DNAJA1): 0.1011 | F6 log2 (H4K5me2/H4K5) (protein P31689 DNAJA1): 0.04124 | E6 log2 (H4K5me2/H4K5) (protein P46109 CRKL): 0.0665 | F6 log2 (H4K5me2/H4K5) (protein P46109 CRKL): -0.05223 | E6 log2 (H4K5me2/H4K5) (protein P49411 TUFM): 0.1754 | F6 log2 (H4K5me2/H4K5) (protein P49411 TUFM): 0.2878 | E6 log2 (H4K5me2/H4K5) (protein P49792 RANBP2): 0.07412 | F6 log2 (H4K5me2/H4K5) (protein P49792 RANBP2): 0.1736 | E6 log2 (H4K5me2/H4K5) (protein P49915 GMPS): 0.05379 | F6 log2 (H4K5me2/H4K5) (protein P49915 GMPS): 0.04262 | E6 log2 (H4K5me2/H4K5) (protein P51991 HNRNPA3): 0.1036 | F6 log2 (H4K5me2/H4K5) (protein P51991 HNRNPA3): 0.2517 | E6 log2 (H4K5me2/H4K5) (protein P52272 HNRNPM): 0.1368 | F6 log2 (H4K5me2/H4K5) (protein P52272 HNRNPM): 0.1164 | E6 log2 (H4K5me2/H4K5) (protein P52597 HNRNPF): 0.1056 | F6 log2 (H4K5me2/H4K5) (protein P52597 HNRNPF): 0.253 | E6 log2 (H4K5me2/H4K5) (protein P52948 NUP98): 0.08442 | F6 log2 (H4K5me2/H4K5) (protein P52948 NUP98): -0.03692 | E6 log2 (H4K5me2/H4K5) (protein P55072 VCP): 0.1596 | F6 log2 (H4K5me2/H4K5) (protein P55072 VCP): 0.3874 | E6 log2 (H4K5me2/H4K5) (protein P62258 YWHAE): 0.1303 | F6 log2 (H4K5me2/H4K5) (protein P62258 YWHAE): -0.03753 | E6 log2 (H4K5me2/H4K5) (protein P62979 RPS27A): 0.1537 | F6 log2 (H4K5me2/H4K5) (protein P62979 RPS27A): -0.5244 | E6 log2 (H4K5me2/H4K5) (protein P63167 DYNLL1): 0.05641 | F6 log2 (H4K5me2/H4K5) (protein P63167 DYNLL1): 0.2614 | E6 log2 (H4K5me2/H4K5) (protein P67870 CSNK2B): 0.1418 | F6 log2 (H4K5me2/H4K5) (protein P67870 CSNK2B): -0.3988 | E6 log2 (H4K5me2/H4K5) (protein P78347 GTF2I): 0.1733 | F6 log2 (H4K5me2/H4K5) (protein P78347 GTF2I): 0.08348 | E6 log2 (H4K5me2/H4K5) (protein P78371 CCT2): 0.07998 | F6 log2 (H4K5me2/H4K5) (protein P78371 CCT2): 0.282 | E6 log2 (H4K5me2/H4K5) (protein P84103 SRSF3): 0.08043 | F6 log2 (H4K5me2/H4K5) (protein P84103 SRSF3): -0.102 | E6 log2 (H4K5me2/H4K5) (protein P85037 FOXK1): 0.1575 | F6 log2 (H4K5me2/H4K5) (protein P85037 FOXK1): -0.07311 | E6 log2 (H4K5me2/H4K5) (protein Q5SY16 NOL9): 0.1325
